Test results from patent publication US4140767A, “Somatostatin analogs” (Merck & Co., Inc., priority 1977, dated 1979).

Key:
plasma insulin = test: Inhibition of insulin: lowering of portal vein insulin in anesthetized rats; assay type: in vivo, rat; settings: anesthetized male Sprague-Dawley rats, external jugular vein administration, portal vein blood after 5 minutes; somatostatin = 1; range in brackets
Method: (§1) The relative potencies of somatostatin analogs on the lowering of plasma insulin and glucagon are determined by the following method:
(§2) Analogs of somatostatin were […] to somatostatin in their ability to lower the levels of portal vein glucagon and insulin in anesthetized rats. Male Sprague-Dawley rats (Charles River CD) weighing 160-200 grams were anesthetized with urethane (150 mg./100 gm.) Saline or peptides were administered via the external jugular vein. After 5 minutes the portal vein was exposed and blood was collected via syringes containing 3 mg. EDTA and placed in chilled tubes containing 100 μl. of Trasylol (obtained from FBA Pharmaceuticals) for subsequent hormone analysis. Plasma levels of glucagon were determined by the method of Faloona, G. R., and Unger, R. H. "Glucagon" in Methods of Hormone Radioimmunoassay, eds. […] Plasma levels of insulin were determined by a modification of the procedure of Herbert, V., Lau, K. S., Gottlieb, C. […]
(§3) Doses were randomized between groups of animals (6 rats/group). Potency values were determined by four, six, or 8 point bioassays with somatostatin as the reference standard. Relative potency values were calculated by a relative potency formula for parallel line bioassays as described in Finney, D. J. Statistical Method in Biological Assay (Charles Griffin and Co., Ltd., London) Chap. […]

plasma glucagon = test: Inhibition of glucagon: lowering of portal vein glucagon in anesthetized rats; assay type: in vivo, rat; settings: anesthetized male Sprague-Dawley rats, external jugular vein administration, portal vein blood after 5 minutes; somatostatin = 1; range in brackets
Method: as §1, §2, §3

growth hormone release = test: Inhibition of pentobarbital stimulated growth hormone release in vivo; design: species or system rat; settings: rats, sodium pentobarbitol 17 mg./Kg., analog subcutaneously, blood after 15 minutes; somatostatin = 1; range in brackets
Method: Somatostatin analogs were compared to somatostain in their ability to inhibit the release of growth hormone in pentobarbital stimulated rats; a modification of the procedure of Brazeau et al. Endocrinology, 94, 184-187 (1974) was empaloyed. Rats were lightly etherized and sodium pentobarbitol (17 mg./Kg.) was injected into the exposed Saphenous vein; somatostatin or analog was simultaneously injected subcutaneously. After 15 minutes the animals were bled via the orbital sinus and blood collected for subsequent growth hormone analysis.
(§4) Doses were randomized between groups of animals (6 rats/group). Potency values were determined by four, six, or 8 point bioassays with somatostatin as the reference standard. Relative potency values were calculated by a relative potency formula for parallel line bioassays as described in Finney, D. J. Statistical Method in Biological Assay (Charles Griffin and Co., Ltd., London) Chap. 4 pp. 99-138 (1964).

Rat pituicytes = test: Growth hormone inhibition in vitro; assay type: cell-based; settings: rat pituicytes after 4 days in culture, 4 hours incubation; somatostatin = 1; range in brackets
Method: Rat pituicytes were isolated according to the procedures of Vale and Grant "In vitro Pituitary Hormone Secretion Assay for Hypophysiotropic Substances" in Methods in Enzymology. Vo. XXXVII, eds. O'Malley, B. W. and Hardman, J. G. (Academic Press, Inc., New York) pp. 5-93 (1975).
After 4 days in culture, the cells were washed and incubated for 4 hours in Dulbecco-modified Eagle's medium in the presence or absence of graded doses of each analog or somatostatin. The medium was then collected for subsequent growth hormone determination by a double antibody radioimmunoassay for rat growth hormone.
as §4

C[C@H](N)C(=O)NCC(=O)N[C@H]1CSSC[C@@H](C(=O)O)NC(=O)[C@H](CO)NC(=O)[C@H]([C@@H](C)O)NC(=O)[C@H](Cc2ccccc2)NC(=O)[C@H]([C@@H](C)O)NC(=O)[C@H](CCCCN)NC(=O)[C@H](Cc2c[nH]c3ccccc23)NC(=O)[C@H](Cc2ccccc2)NC(=O)[C@H](Cc2ccccc2)NC(=O)[C@H](CC(N)=O)NC(=O)[C@H](CCCCN)NC1=O [Somatostatin]
1: Inhibition of Insulin; potency relative to somatostatin (plasma insulin) | Inhibition of Glucagon; potency relative to somatostatin (plasma glucagon) | Inhibition of Pentobarbital Stimulated Growth Hormone Release In Vivo; potency relative to somatostatin (growth hormone release) | Growth Hormone Inhibition In Vitro; potency relative to somatostatin (Rat pituicytes)
